Assay results from patent US20250042889A1, “3CLPRO PROTEASE INHIBITOR” (SHANGHAI QILU PHARMACEUTICAL RESEARCH AND DEVELOPMENT …, priority 2021, published 2025).
Read-outs that look alike come from different tables or passages of the source.

Target: SARS-COV-2 3CLpro/Mpro protease (Severe acute respiratory syndrome coronavirus 2 (2019-nCoV) (SARS-CoV-2), UniProt P0DTD1)
Assay: Inhibitory effect on SARS-COV-2 3CLpro/Mpro protease by fluorescence resonance energy transfer
Type: biochemical
Details: activity intervals A-D
[1] = read-out: IC50 (nM), Inhibition on SARS-CoV-2 3CLpro/Mpro protease
[2] = IC50 (nM), Inhibition on SARS-CoV-2 3CLpro/Mpro protease

SMILES	IC50 [1] [nM]	IC50 [2] [nM]
CNc1cncc(C(=O)N2CCC[C@@H](Nc3c(C(=O)N4CC(F)(F)C(F)(F)C4)cc(Br)cc3[N+](=O)[O-])C2)c1 [Example 273]	10 to 50	–
C[C@@H]1CN(C(=O)c2cc(Br)cc([N+](=O)[O-])c2N[C@@H]2CCCN(C(=O)[C@H]3CC(=O)Nc4ccccc43)C2)C[C@H](C)O1 [Example 274]	< 10	–
CNc1cncc(C(=O)N2CCC[C@@H](Nc3c(C(=O)N4CCC(C)(OC)CC4)cc(Br)cc3[N+](=O)[O-])C2)c1 [Example 275]	10 to 50	–
CNc1cncc(C(=O)N2CCC[C@@H](Nc3c(C(=O)N4CC5CCC(C4)N5)cc(Br)cc3[N+](=O)[O-])C2)c1 [Example 276]	–	10 to 50
CNc1cncc(C(=O)N2CCC[C@@H](Nc3c(C(=O)N4CCc5sccc5C4)cc(Br)cc3[N+](=O)[O-])C2)c1 [Example 277]	10 to 50	–
CNc1cncc(C(=O)N2CCC[C@@H](Nc3c(C(=O)N4Cc5c[nH]nc5C4)cc(Br)cc3[N+](=O)[O-])C2)c1 [Example 278]	10 to 50	–
CNc1cncc(C(=O)N2CCC[C@@H](Nc3c(C(=O)N4CCC(F)(F)CC4)cc(Br)cc3[N+](=O)[O-])C2)c1 [Example 279]	10 to 50	–
CNc1cncc(C(=O)N2CCC[C@@H](Nc3c(C(=O)N4CCC5(CCCN5)CC4)cc(Br)cc3[N+](=O)[O-])C2)c1 [Example 280]	10 to 50	–
CNc1cncc(C(=O)N2CCC[C@@H](Nc3c(C(=O)N4CCC(OC)(C(F)(F)F)CC4)cc(Br)cc3[N+](=O)[O-])C2)c1 [Example 281]	50 to 100	–
C[C@@H]1CN(C(=O)c2cc(Br)cc([N+](=O)[O-])c2N[C@@H]2CCCN(C(=O)[C@H]3CC(=O)Nc4ccccc43)C2)CCO1 [Example 282]	10 to 50	–
C[C@H]1CN(C(=O)c2cc(Br)cc([N+](=O)[O-])c2N[C@@H]2CCCN(C(=O)[C@H]3CC(=O)Nc4ccccc43)C2)CCO1 [Example 283]	10 to 50	–
CNc1cncc(C(=O)N2CCC[C@@H](Nc3c(C(=O)N4Cc5cnn(C)c5C4)cc(Br)cc3[N+](=O)[O-])C2)c1 [Example 284]	10 to 50	–
CNc1cncc(C(=O)N2CCC[C@@H](Nc3c(C(=O)N4CCC5(CCO5)CC4)cc(Br)cc3[N+](=O)[O-])C2)c1 [Example 285]	10 to 50	–
CNc1cncc(C(=O)N2CCC[C@@H](Nc3c(C(=O)N4CCO[C@H](C(F)(F)F)C4)cc(Br)cc3[N+](=O)[O-])C2)c1 [Example 286]	10 to 50	–
COCCN1CCN(C(=O)c2cc(Br)cc([N+](=O)[O-])c2N[C@H]2CN(C(=O)c3cncc(Br)c3)CC2(C)O)CC1 (stereo partly shown) [Example 287]	10 to 50	–
CNc1cncc(C(=O)N2CCC[C@@H](Nc3c(C(=O)N4CCO[C@@H](C(F)(F)F)C4)cc(Br)cc3[N+](=O)[O-])C2)c1 [Example 288]	10 to 50	–
CNc1cncc(C(=O)N2CCC[C@@H](Nc3c(C(=O)N4CCC(N5C[C@@H](C)O[C@@H](C)C5)CC4)cc(Br)cc3[N+](=O)[O-])C2)c1 [Example 289]	10 to 50	–
CNc1cncc(C(=O)N2CCC[C@@H](Nc3c(C(=O)N4C[C@H]5C[C@@H]4CO5)cc(Br)cc3[N+](=O)[O-])C2)c1 [Example 290]	10 to 50	–
CNc1cncc(C(=O)N2CCC[C@@H](Nc3c(C(=O)N4C[C@@H]5C[C@H]4CO5)cc(Br)cc3[N+](=O)[O-])C2)c1 [Example 291]	10 to 50	–
CNc1cncc(C(=O)N2CCC[C@@H](Nc3c(C(=O)N4C5CCCC4CCC5)cc(Br)cc3[N+](=O)[O-])C2)c1 [Example 292]	–	10 to 50

SMILES	IC50 [1] [nM]	IC50 [2] [nM]
CNc1cncc(C(=O)N2CCC[C@@H](Nc3c(C(=O)N4CCC5(CC4)CCC(C)(C)O5)cc(Br)cc3[N+](=O)[O-])C2)c1 [Example 293]	10 to 50	–
CNc1cncc(C(=O)N2CCC[C@@H](Nc3c(C(=O)N4CCOC5CC54)cc(Br)cc3[N+](=O)[O-])C2)c1 (stereo partly shown) [Example 294]	10 to 50	–
O=C(c1cc(Br)cc([N+](=O)[O-])c1N[C@@H]1CCCN(C(=O)C2CNCC(F)(F)C2)C1)N1CCCCC1 (stereo partly shown) [Example 296]	10 to 50	–
Cc1cc(C(=O)N2C[C@H](Nc3c(C(=O)NCc4ccc(Cl)cc4)cc(Br)cc3[N+](=O)[O-])C3(CC3)C2)cc(=O)[nH]1 [Example 297]	10 to 50	–
CNc1cncc(C(=O)N2CC(Nc3c(C(=O)N4CCN(CCOC)CC4)cc(Br)cc3[N+](=O)[O-])C(F)(F)C2)c1 (stereo not shown) [Example 298]	10 to 50	–
Cc1cc(C(=O)N2C[C@H](Nc3c(C(=O)NC4CCCCC4)cc(Br)cc3[N+](=O)[O-])C3(CC3)C2)cc(=O)[nH]1 [Example 299]	10 to 50	–
Cc1cc(C(=O)N2CC(Nc3c(C(=O)N4CCN(C5CCCCC5)CC4)cc(Br)cc3[N+](=O)[O-])C(F)(F)C2)cc(=O)[nH]1 (stereo not shown) [Example 300]	10 to 50	–
CNc1cncc(C(=O)NC[C@@H](COC)Nc2c(C(=O)N3CCCCC3)cc(Br)cc2[N+](=O)[O-])c1 [Example 301]	50 to 100	–
NC(=O)c1cncc(C(=O)N2CCC[C@@H](Nc3c(C(=O)N4CCCCC4)cc(Br)cc3[N+](=O)[O-])C2)c1 [Example 302]	100 to 200	–
CNc1cncc(C(=O)N2CCC[C@@H](Nc3c(C(=O)N4CC(O)CC(F)(F)C4)cc(Br)cc3[N+](=O)[O-])C2)c1 (stereo partly shown) [Example 303]	10 to 50	–
CNc1cncc(C(=O)N2CCC[C@@H](Nc3c(C(=O)N4Cc5cnn(C)c5C4)cc(Br)cc3[N+](=O)[O-])C2)c1 [Example 304]	50 to 100	–
CNc1cncc(C(=O)N2CCC[C@@H](Nc3c(C(=O)N4CCCOCC4)cc(Br)cc3[N+](=O)[O-])C2)c1 [Example 305]	10 to 50	–
CNc1cncc(C(=O)N2C[C@H](Nc3c(C(=O)N4CCCCC4)cc(Br)cc3[N+](=O)[O-])[C@@H](OC)C2)c1 [Example 306]	10 to 50	–
CNc1cncc(C(=O)N2CCC[C@@H](Nc3c(C(=O)N4CC(F)(F)CC(F)(F)C4)cc(Br)cc3[N+](=O)[O-])C2)c1 [Example 307]	10 to 50	–
CNc1cncc(C(=O)N2C[C@H](Nc3c(C(=O)N4CCCCC4)cc(Br)cc3[N+](=O)[O-])[C@H](OC)C2)c1 [Example 308]	10 to 50	–
CNc1cncc(C(=O)N2CCC[C@@H](Nc3c(C(=O)N4CCc5oncc5C4)cc(Br)cc3[N+](=O)[O-])C2)c1 [Example 309]	10 to 50	–
CNc1cncc(C(=O)N2CCC[C@@H](Nc3c(C(=O)N4CCC=C(C)C4)cc(Br)cc3[N+](=O)[O-])C2)c1 [Example 310]	10 to 50	–
CNc1cncc(C(=O)N2CCC[C@@H](Nc3c(C(=O)N4CC=C(C)CC4)cc(Br)cc3[N+](=O)[O-])C2)c1 [Example 311]	10 to 50	–
CNc1cncc(C(=O)N2CCC[C@@H](Nc3c(C(=O)N4CCc5nn(C)cc5C4)cc(Br)cc3[N+](=O)[O-])C2)c1 [Example 313]	10 to 50	–
CNc1cncc(C(=O)N2CCC[C@@H](Nc3c(C(=O)N4CCn5cncc5C4)cc(Br)cc3[N+](=O)[O-])C2)c1 [Example 314]	10 to 50	–

SMILES	IC50 [1] [nM]	IC50 [2] [nM]
CNc1cncc(C(=O)N2CCC[C@@H](Nc3c(C(=O)N4CCc5ncsc5C4)cc(Br)cc3[N+](=O)[O-])C2)c1 [Example 315]	10 to 50	–
CNc1cncc(C(=O)N2CCC[C@@H](Nc3c(C(=O)N4CCc5oc(C)nc5C4)cc(Br)cc3[N+](=O)[O-])C2)c1 [Example 316]	10 to 50	–
CNc1cncc(C(=O)N2CCC[C@@H](Nc3c(C(=O)N4CCC(C5CCOCC5)CC4)cc(Br)cc3[N+](=O)[O-])C2)c1 [Example 317]	10 to 50	–
CNc1cncc(C(=O)N2C[C@H](Nc3c(C(=O)N4CCN(CCOC)CC4)cc(Br)cc3[N+](=O)[O-])C(C)(O)C2)c1 (stereo partly shown) [Example 318]	10 to 50	–
CNc1cncc(C(=O)N2CCC[C@@H](Nc3c(C(=O)N4CCCCC4)cc(Br)cc3C(F)(F)F)C2)c1 [Example 319]	50 to 100	–
CNc1cncc(C(=O)N2C[C@H](Nc3c(C(=O)N4CCO[C@H](C)C4)cc(Br)cc3[N+](=O)[O-])[C@@H](OC)C2)c1 [Example 322]	10 to 50	–
CNc1cncc(C(=O)N2CCC[C@@H](Nc3c(C(=O)N4CCn5cccc5C4)cc(Br)cc3[N+](=O)[O-])C2)c1 [Example 323]	10 to 50	–
C=C1CNCC(C(=O)N2CCC[C@@H](Nc3c(C(=O)N4CCCCC4)cc(Br)cc3[N+](=O)[O-])C2)C1 (stereo partly shown) [Example 324]	100 to 200	–
C[C@@H]1CN(C(=O)c2cc(Br)cc([N+](=O)[O-])c2N[C@@H]2CCCN(C(=O)[C@H]3CNCC(F)(F)C3)C2)C[C@H](C)O1 [Example 325]	10 to 50	–
CNc1ccc2c(C(=O)N3CCC[C@@H](Nc4c(C(=O)N5C[C@@H](C)O[C@@H](C)C5)cc(Br)cc4[N+](=O)[O-])C3)cncc2c1 [Example 326]	10 to 50	–
O=C(c1cc(Br)cc([N+](=O)[O-])c1N[C@@H]1CCCN(C(=O)[C@H]2CNCC(F)(F)C2)C1)N1CCOC2(CC2)C1 [Example 328]	10 to 50	–
C[C@@H]1CN(C(=O)c2cc(Br)cc([N+](=O)[O-])c2N[C@@H]2CCCN(C(=O)[C@H]3CNCC(F)(F)C3)C2)CCO1 [Example 329]	10 to 50	–
O=C(c1cc(Br)cc([N+](=O)[O-])c1N[C@@H]1CCCN(C(=O)[C@H]2CNCC(F)(F)C2)C1)N1CCO[C@H](C(F)(F)F)C1 [Example 330]	10 to 50	–
O=C(c1cc(Br)cc([N+](=O)[O-])c1N[C@@H]1CCCN(C(=O)[C@H]2CNCC(F)(F)C2)C1)N1CC2CCC(C1)O2 [Example 332]	10 to 50	–
O=C(c1cc(Br)cc([N+](=O)[O-])c1N[C@@H]1CCCN(C(=O)[C@H]2CNCC(F)(F)C2)C1)N1CCC2(CCCO2)CC1 [Example 333]	10 to 50	–
CNc1cncc(C(=O)N2CCC[C@@H](Nc3c(C(=O)N4CCCOC(C)C4)cc(Br)cc3[N+](=O)[O-])C2)c1 (stereo partly shown) [Example 334]	10 to 50	–
CNc1cncc(C(=O)N2CCC[C@@H](Nc3c(C(=O)N4CC5C=CC(C4)N5)cc(Br)cc3[N+](=O)[O-])C2)c1 [Example 335]	–	10 to 50
CNc1cncc(C(=O)N2CCC[C@@H](Nc3c(C(=O)N4CC=CCC4)cc(Br)cc3[N+](=O)[O-])C2)c1 [Example 336, (R)-(5-Bromo-2-((1-(5-(methylamino)nicotinoyl)piperidin-3-yl)amino)-3-nitrophenyl)(3,6-dihydropyridin-1 (2H)-yl) methanone]	10 to 50	–
